Patent US10125100B2, “Kinase inhibitors” (Respivert Limited, priority 2014, dated 2018)
Counter-ions that a name gives are not always drawn.

Experiments:
Jurkat cells = test: (r) Cell cytotoxicity assay; format: cell-based, human; details: 24 hours
How it was run: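 Viability read by flow cytometry as the fraction of propidium iodide-negative cells (7.5 μg/mL PI, 15 min), relative to 1.0% DMSO control. Beforehand, 1×10^5 Jurkat cells in RPMI/10% FBS were treated 24 h at 37° C., 5% CO2 with test compound at final 20, 5 or 1 μg/mL.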

c-Src = c-Src (Homo sapiens (Human), UniProt P12931); test: c-Src enzyme inhibition, Z-LYTE FRET; format: biochemical
How it was run: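 Z-LYTE FRET peptide phosphorylation read as donor coumarin over acceptor fluorescein ratio after 1 hr protease development. Compounds (1–0.001 μg/mL) preincubated 2 hr at RT with enzyme; ATP solutions 60 μM for Syk, 800 μM for c-Src; kinase reaction 1 hr.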

Syk = Syk (Homo sapiens (Human), UniProt P43405); test: Syk enzyme inhibition, Z-LYTE FRET; format: biochemical
How it was run: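 Syk or c-Src enzyme (3000 or 2000 ng/mL solutions) was preincubated 2 h at RT with compound solutions at 1, 0.1, 0.01 or 0.001 µg/mL. Z-LYTE FRET peptide (8 µM solution) and ATP (800 µM solution for c-Src, 60 µM for Syk) were then added for 1 h, followed by protease development for 1 h. Phosphorylation was read as the coumarin/fluorescein emission ratio.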

[1] = Hydrolytic stability study; format: physicochemical; details: DMSO/water (3:1); for % Parent Remaining: 1 mg/mL
Protocol: Chemical stability of compounds of the invention was assessed in a mixture of DMSO and water (3:1) at a test compound concentration of 1 mg/mL.
General HPLC Procedure • Agilent, Waters X-Select C18, 2.5 μm, 4.6×30 mm column, 4 min method, 5-95% MeCN/water (0.1% formic acid). Flow rate 2.5 mL/min. Column Oven Temperature 40° C. Detection 254 nm.
Sample Preparation • A 1.0 mg sample of test compound was dissolved in 750 μL of DMSO. Water (250 μL) was added slowly, ensuring no precipitation occurred.
Recording Stability • A 50 μL aliquot of the test solution was removed and analysed in duplicate by 5 μL HPLC injections. The peak area for the test compound was recorded following manual integration of the corresponding UV trace. • The test solution was heated to 60° C., with stirring, and 50 μL aliquots removed for HPLC analysis at 5 and 24 h timepoints.

non-mutant kinases = test: KinomeScan selectivity scores; format: binding; details: for number of individual kinase hits S(1): % Ctrl <1; for number of individual kinase hits S(10): % Ctrl <10; for number of individual kinase hits S(35): % Ctrl <35; for KinomeScan Selectivity Score S(10): non-mutant kinases with % Ctrl <10 / kinases tested; for KinomeScan Selectivity Score S(35): non-mutant kinases with % Ctrl <35 / kinases tested
Text: (§1) These assays may be conducted by DiscoverX (formerly Ambit; San Diego, Calif.).

B-Raf = B-Raf (Homo sapiens (Human), UniProt P15056); test: KINOMEscan binding of kinase to standard ligand; details: KINOMEscan technology
Text: as §1

B-Raf (V600E) = B-Raf (V600E) (Homo sapiens (Human), UniProt P15056, V600E); test: KINOMEscan binding of kinase to standard ligand; details: KINOMEscan technology
Text: as §1

p38 MAPKα (MAPK14) = p38 MAPKα (MAPK14) (Homo sapiens (Human), UniProt Q16539); test: p38 MAPKα enzyme inhibition (Method 2), Z-LYTE FRET; format: biochemical
How it was run: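 Enzyme (200 ng/mL solution) was preincubated 2 h at RT with compound solutions of 1, 0.1, 0.01 or 0.001 μg/mL, and inhibition was read indirectly via MAPKAP-K2 activation/phosphorylation. After a 1 h RT reaction and 1 h protease development, phosphorylation was derived from the coumarin/fluorescein emission ratio.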

[2] = Solubility in fasted-state simulated colonic fluid (FaSSCoF); format: physicochemical; details: 24 h, pH 6.5
Protocol: The solubilities of compounds of the invention in FaSSCoF at pH 6.5 are determined using a modification of a previously-reported procedure (Vertzoni, M., et al. Pharm. Res. 2010, 27, 2187-2196). In place of the bile salt extract employed in the original procedure (which extract is no longer available), the modified procedure uses a mixture of sodium taurochlorate (0.15 g), glycocholic acid (0.15 g), ursodeoxycholic acid (0.05 g), cholic acid (0.05 g), and glycodeoxycholic acid (0.05 g). These five bile acids are ground together with a mortar and pestle to produce a fine white powder that is incorporated into the FaSSCoF, as outlined below.
Tris(hydroxymethyl)aminomethane (Tris; 0.275 g) and maleic acid (0.44 g) are dissolved in water (35 mL) to give a solution whose pH is adjusted to 6.5 by treatment with 0.5M NaOH (ca. 12 mL). The solution is then made up to 50 mL with water. A portion of this Tris/maleate buffer solution (ca. 25 mL) is added to a 0.5 L round-bottomed flask, before being treated with 0.00565 g of the bile acid mixture described above. Solutions of phosphatidylcholine (0.0111 g) in DCM (0.15 mL) and palmitic acid (0.0013 g) in DCM (0.15 mL) are added, then the organic solvent is evaporated off under reduced pressure at 40° C. until a clear solution, with no perceptible DCM odour, is achieved. The volume of the evaporated solution is adjusted to 50 mL by addition of the remainder of Tris/maleate buffer, then BSA (0.115 g) is added, before being dissolved by gentle agitation.
Test compounds are suspended in the pH 6.5 FaSSCoF medium to give a maximum final concentration of 2-10 mg/mL. The suspensions are equilibrated at 25° C. for 24 h, before being filtered through a glass fibre C filter. The filtrates are then diluted as appropriate for injection and quantification by HPLC with reference to a standard. Different volumes of the standard, diluted and undiluted sample solutions are injected and the solubilities are calculated using the peak areas determined by integration of the peak found at the same retention time as the principal peak in the standard injection.

B-Raf, sequence (P15056 whole entry): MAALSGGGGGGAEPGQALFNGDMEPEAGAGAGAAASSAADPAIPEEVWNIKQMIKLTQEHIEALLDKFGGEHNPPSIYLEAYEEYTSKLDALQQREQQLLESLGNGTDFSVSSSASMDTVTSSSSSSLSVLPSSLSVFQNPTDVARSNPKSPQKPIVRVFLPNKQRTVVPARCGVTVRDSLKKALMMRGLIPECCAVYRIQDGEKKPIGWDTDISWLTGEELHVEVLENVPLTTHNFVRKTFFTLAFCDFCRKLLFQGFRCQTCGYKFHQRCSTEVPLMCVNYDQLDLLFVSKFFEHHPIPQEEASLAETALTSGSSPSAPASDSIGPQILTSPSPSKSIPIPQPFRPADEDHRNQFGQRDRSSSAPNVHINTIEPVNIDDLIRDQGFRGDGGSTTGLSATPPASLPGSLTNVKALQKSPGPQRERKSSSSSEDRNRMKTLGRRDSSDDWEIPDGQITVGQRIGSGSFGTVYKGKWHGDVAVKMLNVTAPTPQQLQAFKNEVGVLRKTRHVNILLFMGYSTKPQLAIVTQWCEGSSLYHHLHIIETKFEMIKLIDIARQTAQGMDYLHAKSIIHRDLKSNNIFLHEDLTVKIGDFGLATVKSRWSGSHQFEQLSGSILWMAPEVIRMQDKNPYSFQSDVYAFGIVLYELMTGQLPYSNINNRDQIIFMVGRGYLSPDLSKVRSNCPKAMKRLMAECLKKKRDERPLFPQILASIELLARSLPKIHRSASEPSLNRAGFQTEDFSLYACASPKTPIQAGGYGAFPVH
c-Src, sequence (P12931 whole entry, looked up): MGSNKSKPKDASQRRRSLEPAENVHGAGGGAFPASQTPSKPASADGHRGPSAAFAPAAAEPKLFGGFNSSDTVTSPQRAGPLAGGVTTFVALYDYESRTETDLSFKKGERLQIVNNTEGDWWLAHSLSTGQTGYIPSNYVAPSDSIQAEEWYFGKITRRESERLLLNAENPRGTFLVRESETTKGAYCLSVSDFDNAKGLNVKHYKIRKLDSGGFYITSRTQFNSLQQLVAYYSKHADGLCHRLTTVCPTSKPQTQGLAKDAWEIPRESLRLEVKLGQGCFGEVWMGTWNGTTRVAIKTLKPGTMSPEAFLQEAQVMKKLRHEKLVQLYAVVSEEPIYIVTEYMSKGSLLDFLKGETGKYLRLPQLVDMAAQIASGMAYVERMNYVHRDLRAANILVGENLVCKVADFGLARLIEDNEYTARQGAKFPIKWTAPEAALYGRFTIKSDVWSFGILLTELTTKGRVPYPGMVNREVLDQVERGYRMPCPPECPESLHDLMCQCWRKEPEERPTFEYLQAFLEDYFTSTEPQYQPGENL
p38 MAPKα (MAPK14), sequence (Q16539 whole entry): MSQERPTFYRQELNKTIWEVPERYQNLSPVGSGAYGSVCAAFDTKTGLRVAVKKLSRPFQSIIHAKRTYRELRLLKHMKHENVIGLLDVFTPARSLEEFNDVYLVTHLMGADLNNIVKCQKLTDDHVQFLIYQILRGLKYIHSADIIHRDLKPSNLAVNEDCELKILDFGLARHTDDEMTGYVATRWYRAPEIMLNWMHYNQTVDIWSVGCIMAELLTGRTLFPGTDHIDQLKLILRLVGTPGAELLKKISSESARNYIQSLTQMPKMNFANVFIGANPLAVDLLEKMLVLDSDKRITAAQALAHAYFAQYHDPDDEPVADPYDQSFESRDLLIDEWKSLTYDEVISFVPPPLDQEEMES
B-Raf (V600E), sequence (P15056 whole entry V600E): as the sequence (P15056 whole entry) above, with V600E counted along it

In the case of `COc1cc(Nc2cc(Oc3ccc(NC(=O)Nc4cc(C(C)(C)C)cc(NS(C)(=O)=O)c4OC)c4ccccc34)ccn2)cc(OC)c1C(=O)NCCOCCOCCOP(=O)(O)O` [Example 47, 2-(2-(2-(4-((4-((4-(3-(5-(tert-butyl)-2-methoxy-3-(methylsulfonamido)phenyl)ureido)-naphthalen-1-yl)oxy)pyridin-2-yl)amino)-2,6-dimethoxybenzamido)ethoxy)ethoxy)ethyl dihydrogen phosphate], the “% Viability at 1 μg/mL” value (Jurkat cells) is reported as 91.2%, the “% Viability at 5 μg/mL” value (Jurkat cells) is reported as 96.0% and the “% Viability at 20 μg/mL” value (Jurkat cells) is reported as 97.8%. For the same compound, the IC50 (c-Src) was 15 nM, the IC50 (Syk) was 8 nM and the “% Parent Remaining” value ([1]; 0 min) was 100%. For the same compound, the “% Parent Remaining” value ([1]; 60° C., 317 min) was 104%, the “% Parent Remaining” value ([1]; 60° C., 1450 min) was 89% and the “number of individual kinase hits S(1)” value (non-mutant kinases; 50 nM) was 0. The “number of individual kinase hits S(10)” value (non-mutant kinases; 50 nM) was 17, the “number of individual kinase hits S(35)” value (non-mutant kinases; 50 nM) was 55 and the “KinomeScan Selectivity Score S(10)” value (non-mutant kinases; 50 nM) was 0.042. The “KinomeScan Selectivity Score S(35)” value (non-mutant kinases; 50 nM) was 0.136, the “number of individual kinase hits S(1)” value (non-mutant kinases; 500 nM) was 30 and the “number of individual kinase hits S(10)” value (non-mutant kinases; 500 nM) was 90. The “number of individual kinase hits S(35)” value (non-mutant kinases; 500 nM) was 128, the “KinomeScan Selectivity Score S(1)” value (non-mutant kinases; 500 nM, non-mutant kinases with % Ctrl <1 / kinases tested) was 0.074 and the “KinomeScan Selectivity Score S(10)” value (non-mutant kinases; 500 nM) was 0.223. The “KinomeScan Selectivity Score S(35)” value (non-mutant kinases; 500 nM) was 0.318, the “effect on the binding of B-Raf to its standard ligand” value (B-Raf) was “did not have any significant effect” and the “effect on the binding of B-Raf (V600E) to its standard ligand” value (B-Raf (V600E)) was “did not have any significant effect”. The IC50 (p38 MAPKα (MAPK14)) was 4 nM.
In the case of `C#Cc1cc(Nc2nccc(Oc3ccc(NC(=O)Nc4cc(C(C)C)nn4-c4ccc(C)cc4)c4ccccc34)n2)cc(C(=O)NCCN2CCOCC2)c1` [Reference Compound B, 3-ethynyl-5-((4-((4-(3-(3-isopropyl-1-(p-tolyl)-1H-pyrazol-5-yl)ureido)naphthalen-1-yl)oxy)pyrimidin-2-yl)amino)-N-(2-morpholinoethyl)benzamide, reference compound], the “% Parent Remaining” value ([1]; 0 min) is reported as 100%, the “% Parent Remaining” value ([1]; 60° C., 297 min) is reported as 79% and the “% Parent Remaining” value ([1]; 60° C., 1429 min) is reported as 18%. The “decomposition under the conditions of the experiment” value ([1]; 60° C.) was “substantial decomposition”.
With `COc1cc(Nc2cc(Oc3ccc(NC(=O)Nc4cc(C(C)(C)C)cc(NS(C)(=O)=O)c4OC)c4ccccc34)ccn2)cc(OC)c1C(=O)NCCN1CCN(CCO)CC1` [Example 37, 4-((4-((4-(3-(5-(tert-Butyl)-2-methoxy-3-(methylsulfonamido)phenyl)ureido)naphthalen-1-yl)oxy)pyridin-2-yl)amino)-N-(2-(4-(2-hydroxyethyl)piperazin-1-yl)ethyl)-2,6-dimethoxybenzamide] the “% Viability at 1 μg/mL” value (Jurkat cells) was 52.9%, the “% Viability at 5 μg/mL” value (Jurkat cells) was 55.8% and the “% Viability at 20 μg/mL” value (Jurkat cells) was 28.9%. The “pH 6.5 FaSSCoF Solubility, Run 2” value [2] was 0.024 mg/mL.
For `COc1cc(Nc2cc(Oc3ccc(NC(=O)Nc4cc(NS(C)(=O)=O)cc(C(C)(C)C)c4)c4ccccc34)ccn2)ccc1C(=O)NCCCN1CCN(C)CC1` [17(bp), 4-((4-((4-(3-(3-(tert-Butyl)-5-(methylsulfonamido)phenyl)ureido)naphthalen-1-yl)oxy)pyridin-2-yl)amino)-2-methoxy-N-(3-(4-methylpiperazin-1-yl)propyl)benzamide], the “% Viability at 1 μg/mL” value (Jurkat cells) was 93.2%, the “% Viability at 5 μg/mL” value (Jurkat cells) was 41.0% and the “% Viability at 20 μg/mL” value (Jurkat cells) was 2.0%. For the same compound, the “pH 6.5 FaSSCoF Solubility, Run 2” value [2] was 0.024 mg/mL.
For `COc1cc(Nc2cc(Oc3ccc(NC(=O)Nc4cc(C(C)(C)C)cc(NS(C)(=O)=O)c4OC)c4ccccc34)ccn2)ccc1C(=O)NCCNC(=O)CCC(=O)O` [17(cd) (hydrochloride salt), 4-((2-(4-((4-((4-(3-(5-(tert-Butyl)-2-methoxy-3-(methylsulfonamido)phenyl)ureido)-naphthalen-1-yl)oxy)pyridin-2-yl)amino)-2-methoxybenzamido)ethyl)amino)-4-oxobutanoic acid], the “pH 6.5 FaSSCoF Solubility, Run 2” value [2] was 0.049 mg/mL.
For `COc1cc(Nc2nccc(Oc3ccc(NC(=O)Nc4cc(C(C)(C)C)cc(NS(C)(=O)=O)c4OC)c4ccccc34)n2)ccc1C(=O)NCCC1CCN(C)CC1` [17(an), 4-((4-((4-(3-(5-(tert-butyl)-2-methoxy-3-(methylsulfonamido)phenyl)ureido)naphthalen-1-yl)oxy)pyrimidin-2-yl)amino)-2-methoxy-N-(2-(1-methylpiperidin-4-yl)ethyl)benzamide], the “% Viability at 1 μg/mL” value (Jurkat cells) was 97.9%, the “% Viability at 5 μg/mL” value (Jurkat cells) was 37.9% and the “% Viability at 20 μg/mL” value (Jurkat cells) was 1.1%. For the same compound, the “pH 6.5 FaSSCoF Solubility, Run 2” value [2] was 0.049 mg/mL.
